Laboratory results reported in US12473295B2, “Substituted straight chain spiro derivatives” (Janssen Pharmaceutica NV, priority 2019, dated 2025).
Counter-ions that a name gives are not always drawn. Like-named read-outs stand apart in the source and are kept apart here.

Assays:
[1] = test system: MOLM14 cells; experiment: Proliferation assay (spheroid growth, 8 days), MOLM14; type: cell-based, human; details: MOLM14, 8 days, read-out: spheroid assay_OneTime MOLM14 IC50;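 further: spheroid size read as confluence by live-cell imaging, compounds added at a range of concentrations with 0.3% DMSO, DMSO-treated wells = 0%, highest reference dose = low control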
[2] = test system: MEIS1 mRNA; experiment: MEIS1 mRNA expression assay (Quantigene Singleplex) in MOLM14 cells; type: cell-based, human; details: Homo sapiens, MOLM-14, 48 h, 48 hours incubation;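 further: MEIS1 transcript levels read by probe hybridization and normalized to RPL28 mRNA, with IC50 fitted to fold changes across a rising compound concentration series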
[3] = target: menin/MLL (terbium chelate-labeled menin, FITC-MBM1 peptide) (Homo sapiens (Human), UniProt O00255); experiment: Menin/MLL homogenous time-resolved fluorescence (HTRF) assay; type: binding;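 further: IC50 from percent inhibition of HTRF signal, normalized between wells without competitor and wells with a saturating competitor that displaces FITC-MBM1 from His-tagged menin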
menin/MLL (terbium chelate-labeled menin, FITC-MBM1 peptide), sequence (O00255 other isoform, or with tags, fused parts or gaps): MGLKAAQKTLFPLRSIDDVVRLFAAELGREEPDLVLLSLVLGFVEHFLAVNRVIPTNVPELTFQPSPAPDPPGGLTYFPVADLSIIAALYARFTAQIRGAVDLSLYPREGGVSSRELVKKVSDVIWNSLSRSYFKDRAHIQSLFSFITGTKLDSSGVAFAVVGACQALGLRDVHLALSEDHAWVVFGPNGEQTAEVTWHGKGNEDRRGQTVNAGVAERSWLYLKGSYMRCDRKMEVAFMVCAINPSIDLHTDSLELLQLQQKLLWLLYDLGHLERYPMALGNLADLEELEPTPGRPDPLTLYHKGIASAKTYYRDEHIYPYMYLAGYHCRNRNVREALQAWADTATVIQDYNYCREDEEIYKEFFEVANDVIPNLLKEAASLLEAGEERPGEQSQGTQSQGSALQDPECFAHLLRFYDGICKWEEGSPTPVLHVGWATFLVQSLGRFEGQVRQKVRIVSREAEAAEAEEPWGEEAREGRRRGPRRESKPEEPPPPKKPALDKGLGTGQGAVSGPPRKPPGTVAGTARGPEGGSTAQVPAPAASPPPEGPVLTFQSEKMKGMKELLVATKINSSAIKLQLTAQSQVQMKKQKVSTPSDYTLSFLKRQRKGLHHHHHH

[4] = test system: OCI-AML3 cells; experiment: Proliferation assay (spheroid growth, 8 days), OCI-AML3; type: cell-based, human; details: OCI-AML3, 8 days
Description: The anti-proliferative effect of menin/MLL protein/protein interaction inhibitor test compounds was assessed in human leukemia cell lines. The cell line MOLM14 harbors a MLL translocation and expresses the MLL fusion protein MLL-AF9, respectively, as well as the wildtype protein from the second allele. OCI-AML3 cells that carry the NPM1c gene mutation were also tested. […] KO-52 was used as a control cell line containing two MLL (KMT2A) wildtype alleles in order to exclude compounds that display general cytotoxic effects.
KO-52 and OCI-AML3 cell lines were propagated in alpha-MEM (Sigma Aldrich) supplemented with 20% heat-inactivated fetal bovine serum (HyClone), 2 mM L-glutamine (Sigma Aldrich) and 50 μg/ml gentamycin (Gibco).
In order to assess the anti-proliferative effects, 200 MOLM14 cells, 200 OCI-AML3 cells or 300 KO-52 cells were seeded in 200 μl media per well in […] round bottom, ultra-low attachment plates (Costar, catalogue number 7007). Cell seeding numbers were chosen based on growth curves to ensure linear growth throughout the experiment. Test compounds were added at different concentrations and the DMSO content was normalized to 0.3%. Cells were incubated for 8 days at 37° C. and 5% CO2. Spheroid like growth was measured in real-time by live-cell imaging (IncuCyteZOOM, Essenbio, 4× objective) acquiring images at day 8. Confluence (%) as a measure of spheroid size was determined using an integrated analysis tool.
In order to determine the effect of the test compounds over time, the confluence in each well as a measure of spheroid size, was calculated. Confluence of the highest dose of a reference compound was used as baseline for the LC (Low control) and the confluence of DMSO treated cells was used as 0% cytotoxicity (High Control, HC).
GraphPad Prism(version 7.00) was used to calculate the IC50. Dose-response equation was used for the plot of % Effect vs Log 10 compound concentration with a variable slope and fixing the maximum to 100% and the minimum to 0%.

[5] = HTRF-30 min incubation IC50, 30 min incubation

| IC50 ([1]; Homo sapiens, MOLM-14, […]) | IC50 [2] | IC50 [3, 5] | IC50 ([4]; Homo sapiens, OCI-AML-3, […]) | IC50 [1] | IC50 ([3]; read-out: HTRF-30 min incubation IC50, 30 min incubation) | IC50 [4] | SMILES |
| --- | --- | --- | --- | --- | --- | --- | --- |
| 210 nM | 110 nM | 0.33 nM | 680 nM | – | – | – | CCN(C(=O)c1cc(F)ccc1Oc1nnc(Cl)nc1N1CCC2(C1)CN([C@H](CCCN(C)C)C(C)C)C2)C(C)C [Compound 411, (R)-2-((3-chloro-5-(2-(6-(dimethylamino)-2-methylhexan-3-yl)-2,6-diazaspiro[3.4]octan-6-yl)-1,2,4-triazin-6-yl)oxy)-N-ethyl-5-fluoro-N-isopropylbenzamide formate] |
| 56 nM | 140 nM | 0.2 nM | 280 nM | – | – | – | CCN(C(=O)c1cc(F)ccc1Oc1nnc(NC)nc1N1CCC2(C1)CN([C@H](CCCN(C)CCOC)C(C)C)C2)C(C)C [Compound 395, (R)-N-ethyl-5-fluoro-N-isopropyl-2-((5-(2-(6-((2-methoxyethyl)(methyl)amino)-2-methylhexan-3-yl)-2,6-diazaspiro[3.4]octan-6-yl)-3-(methylamino)-1,2,4-triazin-6-yl)oxy)benzamide formate] |
| > 940 nM | > 1000 nM | 12 nM | 4980 nM | – | – | – | CCN(C)C[C@H](O)C[C@@H](C(C)C)N1CC2(CCN(c3ncnnc3Oc3ccc(F)cc3C(=O)N(CC)C(C)C)C2)C1 (relative stereo) [Compound 347, N-ethyl-2-((5-(2-((3*S,5R)-6-(ethyl(methyl)amino)-5-hydroxy-2-methylhexan-3-yl)-2,6-diazaspiro[3.4]octan-6-yl)-1,2,4-triazin-6-yl)oxy)-5-fluoro-N-isopropylbenzamide formate] |
| > 940 nM | > 1000 nM | 8.31 nM | 7090 nM | – | – | – | CCN(C(=O)c1cc(F)ccc1Oc1nncnc1N1CCC2(C1)CN([C@@H](CCN(C)C)C(C)C)C2)C(C)C (single isomer, unassigned) [Compound 225, (*S)-2-((5-(2-(1-(dimethylamino)-4-methylpentan-3-yl)-2,6-diazaspiro[3.4]octan-6-yl)-1,2,4-triazin-6-yl)oxy)-N-ethyl-5-fluoro-N-isopropylbenzamide fumarate] |
| 720 nM | ~590 nM | 0.051 nM | 1490 nM | – | – | – | CCN(C(=O)c1cc(F)ccc1Oc1nnc(C)nc1N1CCC2(C1)CN([C@H](CCCN)C(C)C)C2)C(C)C [Compound 413, (R)-2-((5-(2-(6-amino-2-methylhexan-3-yl)-2,6-diazaspiro[3.4]octan-6-yl)-3-methyl-1,2,4-triazin-6-yl)oxy)-N-ethyl-5-fluoro-N-isopropylbenzamide formate] |
| 420 nM | ~360 nM | 1.82 nM | – | – | – | – | CC(C)[C@H](C[C@H](O)CN(C)C)N1CC2(CCN(c3ncnnc3Oc3ccc(F)cc3C(=O)N(C(C)C)C(C)C)C2)C1 (single isomer, unassigned) [Compound 369, 2-((5-(2-((3*S,5*S)-6-(dimethylamino)-5-hydroxy-2-methylhexan-3-yl)-2,6-diazaspiro[3.4]octan-6-yl)-1,2,4-triazin-6-yl)oxy)-5-fluoro-N,N-diisopropylbenzamide fumarate] |
| 640 nM | ~440 nM | 0.12 nM | 1850 nM | – | – | – | CCN(C(=O)c1cc(F)ccc1Oc1nnc(NC)nc1N1CCC2(C1)CN([C@H](CCCN)C(C)C)C2)C(C)C [Compound 409, (R)-2-((5-(2-(6-amino-2-methylhexan-3-yl)-2,6-diazaspiro[3.4]octan-6-yl)-3-(methylamino)-1,2,4-triazin-6-yl)oxy)-N-ethyl-5-fluoro-N-isopropylbenzamide hydrochloride] |
| – | – | – | – | 340 nM | 2.56 nM | 2390 nM | CC(C)[C@H](CCCN(C)C)N1CC2(CCN(c3ccnnc3Oc3ccc(F)cc3C(=O)N(C(C)C)C(C)C)C2)C1 (single isomer, unassigned) [Compound 76, (*S)-2-((4-(2-(6-(dimethylamino)-2-methylhexan-3-yl)-2,6-diazaspiro[3.4]octan-6-yl)pyridazin-3-yl)oxy)-5-fluoro-N,N-diisopropylbenzamide] |
| 220 nM | 130 nM | 0.033 nM | 490 nM | – | – | – | CCN(C(=O)c1cc(F)ccc1Oc1nnc(Cl)nc1N1CCC2(C1)CN([C@H](CCCN)C(C)C)C2)C(C)C [Compound 406, (R)-2-((5-(2-(6-amino-2-methylhexan-3-yl)-2,6-diazaspiro[3.4]octan-6-yl)-3-chloro-1,2,4-triazin-6-yl)oxy)-N-ethyl-5-fluoro-N-isopropylbenzamide formate] |
| 97 nM | 160 nM | 0.26 nM | 770 nM | – | – | – | CCN(C(=O)c1cc(F)ccc1Oc1nncnc1N1CC2(CCN(C(CCCN(C)CCOC)C(C)C)C2)C1)C(C)C (stereo not shown) [Compound 302, N-ethyl-5-fluoro-N-isopropyl-2-((5-(6-(6-((2-methoxyethyl)(methyl)amino)-2-methylhexan-3-yl)-2,6-diazaspiro[3.4]octan-2-yl)-1,2,4-triazin-6-yl)oxy)benzamide fumarate] |
| > 940 nM | > 1000 nM | 5.57 nM | 4630 nM | – | – | – | CCN(C(=O)c1cc(F)ccc1Oc1nncnc1N1CCC2(C1)CN([C@@H](CCCCN)C(C)C)C2)C(C)C (single isomer, unassigned) [Compound 210, (*S)-2-((5-(2-(7-amino-2-methylheptan-3-yl)-2,6-diazaspiro[3.4]octan-6-yl)-1,2,4-triazin-6-yl)oxy)-N-ethyl-5-fluoro-N-isopropylbenzamide] |
| 28 nM | – | 0.29 nM | 61 nM | – | – | – | CCN(C(=O)c1cc(F)ccc1Oc1nncnc1N1CCC2(C1)CN(C(C(C)C)C(C)CCN(C)CCOC)C2)C(C)C (single isomer, unassigned) [Compound 265, N-ethyl-5-fluoro-N-isopropyl-2-((5-(2-(6-((2-methoxyethyl)(methyl)amino)-2,4-dimethylhexan-3-yl)-2,6-diazaspiro[3.4]octan-6-yl)-1,2,4-triazin-6-yl)oxy)benzamide (mixture of R,S and S,R; or mixture of RR and S,S) fumarate] |
| 7 nM | – | – | 40 nM | – | – | – | COCCN(C)CCC[C@H](C(C)C)N1CC2(CCN(c3ncnnc3Oc3ccc(F)cc3C(=O)N([13CH2][13CH3])[13CH]([13CH3])[13CH3])C2)C1.O=C(O)C(=O)O [Compound 402] |
| 300 nM | 160 nM | 1.53 nM | – | – | – | – | CCN(C(=O)c1cc(F)ccc1Oc1nncnc1N1CCC2(C1)CN([C@H](C[C@H](CN(C)C)OC)C(C)C)C2)C(C)C (single isomer, unassigned) [Compound 314, 2-((5-(2-((3*R,5*R)-6-(dimethylamino)-5-methoxy-2-methylhexan-3-yl)-2,6-diazaspiro[3.4]octan-6-yl)-1,2,4-triazin-6-yl)oxy)-N-ethyl-5-fluoro-N-isopropylbenzamide fumarate] |
| – | 49 nM | ~0.035 nM | – | – | – | – | CCN(C(=O)c1cc(F)ccc1Oc1nnc(OC)nc1N1CCC2(C1)CN([C@H](CCCN(C)CCOC)C(C)C)C2)C(C)C [Compound 416, (R)-N-ethyl-5-fluoro-N-isopropyl-2-((3-methoxy-5-(2-(6-((2-methoxyethyl)(methyl)amino)-2-methylhexan-3-yl)-2,6-diazaspiro[3.4]octan-6-yl)-1,2,4-triazin-6-yl)oxy)benzamide formate] |
